Consider ten molecules from patent publication US7132286B2, “Method for neural stem cell differentiation using valproate” (Psychiatric Genomics, Inc., priority 2001, dated 2006).

The conditions of series [1]: literature; cited from earlier work.
For series [2] the following is noted: literature; cited from earlier work. The source holds these as a separate data set.
Series [3] concerns rat cortical stem cells. Nature of the series: Neuronal differentiation of rat cortical stem cells (β-tubulin III immunofluorescence, cell counting). The format is cell-based. Conditions: rat cortical stem cells; for effect on neuronal differentiation (percentage of β-tubulin-III expressing cells) in words: 6 days, vs control; for percentage of β-tubulin III expressing neurons (mean+SD): daily treatment 6 days, 10 ng/ml BDNF, 20 ng/ml NT-3, untreated control 6.2+1.8%. An excerpt: Isolation of cortical and striatal stem cells. Timed pregnant Sprague Dawley rats were obtained from Taconic at embryonic age E14–E15 were sacrificed by inhalation of excess carbon dioxide. The abdomen of the rat was cleaned with 70% ethanol and the uterus was removed quickly and aseptically on the bench top. The uterus was placed in ice cold HBSS (GIBCO Cat. #20012-027) in a 10 cm petridish. After rinsing the uterus in PBS, embryos were removed from the uterus, rinsed in HBSS and collected in cold HBSS (buffered with HEPES and sodium bicarbonate) in a 10 cm petridish and placed on ice.
Plating, expansion and passaging of cortical and striatal stem cells. A generous amount of the triturated cell suspension was left in the original 15 ml tube to avoid fibroblast contamination in cultures. About 4–5 ml of the 6 ml of cells suspension was used for plating. Cells were plated at a concentration of 1.3×10^3 cells to 3.0×10^3 per cm^2 in 100 mm dish. This culture is designated P0 (passage 0).
(§1) Following plating cells were expanded for about 3–4 days (Passage 1, P1). Cells were treated daily with 10 ng/ml bFGF. The cultures were never permitted to reach more than 70% confluency. Cultures were then passaged as follows: 10 ml of HBSS without Ca^2+ and Mg^2+ was added to each 100 mm dish and the cells incubated at 37° C. for 5–15 minutes, or until sufficient numbers of the stem cells were rounded up. It is not expected that all cells in the culture will round up as there are several cell types in the culture at P0. The pH of the HBSS should be neutral at all times during this incubation. Cells were then removed from the dish by pipetting with a 5 ml pipette, and collected in a 15 or 50 ml conical tube, and centrifuged at 1000 g for 5 minutes. Cells were gently re-suspended in medium, counted, and plated at a density of 1×10^6 cells in 10 cm dishes and expanded for about 2 days in bFGF (Passage 1, P1). At that time the cells were passaged as described and plated onto pre-coated poly-L-ornithine/fibronectin vessels at concentrations indicated below for each experiment. Cells were treated with bFGF for 2 additional days. Before each treatment the bFGF was removed from the cells by washing twice with DMEM/F 12 to induce cell differentiation. For neurite outgrowth experiments, cells were seeded at 5×10^3 cells/well in 24-well plates and treated immediately.
(§2) Drug treatment. For immunofluorescence and Western analysis, cells were treated daily with either 0.5 mM of valproate (Sigma), 10 ng/ml of BDNF (R & D Systems), 20 ng/ml of NT-3 (R & D Systems), 1 nM 9cis retinoic acid (Sigma) or a dilution of NCM for 6 or 7 days. In some experiments valproate was also added with NCM and/or 9cis RA for 7 days. For human stem cell experiments, valproate (0.5 mM) or BDNF (25 ng/ml) was added for 9 days. For neurite outgrowth experiments, cells were treated for 1 day with 0.5 mM valproate or 50 ng/ml of BDNF. Where applicable, medium was changed every 2 days. After about 5–10 days, preferably on day 6 (i.e., after 6 days of drug exposure) the cells were fixed with a 4% solution of para-formaldehyde (PFA) in PBS, prepared as follows:
Immunofluorescent staining and visualization. Cells were plated at 20,000 cells/well in poly-L-ornithine/fibronectin (1 mg/ml) coated 24-well plates. After fixation, the PBS was aspirated from the fixed cells and the cells were treated with blocking solution (10% normal goat serum-NGS-Jackson Labs), 0.3% Triton-Sigma, in PBS) to saturate non-specific sites and permeabilize the cells. […]

For series [4], the system named is human striatal stem cells (line 161). In words: Neuronal differentiation of human striatal stem cells (β tubulin III neurons, total cells). Type of series: cell-based. As to conditions: 9 days, 0.5 mM valproate, BDNF 25 ng/ml, untreated control 40%. As to the method: Expansion and differentiation of striatal human stem cells. Human stem cells were provided from ReNeuron Inc. (U.K.). Striatum was obtained after 6 to 12 weeks of gestation from routine legal abortion. Cell line was provided by ReNeuron at passage 16. The stem cells were expanded in untreated 25 cm^2 tissue culture flasks (Nunc, USA) in the presence of 20 ng/ml and 10 ng/ml of human recombinant EGF and bFGF respectively, in NSA basal serum-free medium (Euroclone, U.K). Fresh medium and growth factors were added every 3 days. In these conditions stem cells were growing as floating neurospheres. After 4 weeks, the neurospheres were harvested, treated with a mild papain treatment in HBSS and dissociated into a single cell suspension. Cells were counted and viability was estimated by trypan blue exclusion method. Cells were differentiated by growth factors removal. The cells were plated in NSA medium at 20,000 cells/well on LabTek permanox culture slides of 8 wells precoated with laminin (1 μg/ml). Cells were treated with valproate and BDNF for 9 days at 37° C. and a saturated humidified atmosphere of 5% CO2, 1% O2 and 94% N2. Fresh medium and re-treatment with factors was performed every 3 days.
as §2
Immunofluorescent staining and visualization. Cells were plated at 20,000 cells/well in poly-L-ornithine/fibronectin (1 mg/ml) coated 24-well plates. […]
For counting, three to five different fields of interest at magnification 10× or 20× were chosen randomly. For immunofluorescence, 3 different black and white pictures were taken by field of interest with a digital camera CoolSnap Fx (Princeton) corresponding to the exposure of Cy2, Cy3 and Hoechst fluorescence. […] The percentage of neurons, astrocytes and GABAergic cells was determined by comparing the number of cells immunopositive for β-tubulin III, GFAP and GABA to the number of bis-benzamide stained nuclei (i.e., total cell number). […]

The test system of series [5] is rat cortical stem cells. In words: Neurite outgrowth of neurons derived from rat cortical stem cells (ArrayScan neurite outgrowth index). As to conditions: 1 day; 0.5 mM valproate, 50 ng/ml BDNF; control 35.1+0.3. Type of series: cell-based. As to the method: as §1, with “At that time the cells were passaged as described and plated onto pre-coated poly-L-ornithine/fibronectin vessels at concentrations indicated below for each experiment. Cells were treated with bFGF for 2 additional days. Before each treatment the bFGF was removed from the cells by washing twice with DMEM/F 12 to induce cell differentiation. For neurite outgrowth experiments, cells were seeded at 5×10^3 cells/well in 24-well plates and treated immediately.” left out
For analysis of neurite outgrowth, digital images were taken with an ArrayScan HCS System (Cellomics, Pa.) of 100 cells/well treated with valproate (0.5 mM) and BDNF (50 ng/ml) for 1 day. […] Neurite outgrowth index is defined as the percentage of cells whose neurites total more than 20 μm in length, and is calculated using Cellomics' Neurite Outgrowth application.

Turning to `CCCCC(CCCC)C(=O)O` [2-butylhexnoic acid], the teratogenic activity result in series [1] was “in vivo teratogenic activity”. In addition, the “effect on proliferation and differentiation” value in series [2] is “inhibit proliferation and enhance differentiation”.
With `CCC=C(CCC)C(=O)O` [2-en-valproate], the teratogenic activity entry in series [1] is reported as “Non-teratogenic”. Moreover, the “effect on proliferation and differentiation” value in series [2] was “have not been shown to affect differentiation”.
For the molecule `CCCCC(CC)C(=O)O` (stereo not drawn) [2-ethylhexanoic acid], the teratogenic activity result in series [1] was “in vivo teratogenic activity”. Besides, the “effect on proliferation and differentiation” value in series [2] was “inhibit proliferation and enhance differentiation”.
`CCCCC(CCC)C(=O)O` (stereo not drawn) [2-propylhexanoic acid]: in series [1], the teratogenic activity result is recorded as “in vivo teratogenic activity”. The “effect on proliferation and differentiation” value in series [2] was “inhibit proliferation and enhance differentiation”.
As to `CCCC(CC(C)C)C(=O)O` (stereo not drawn) [4 methyl-valproate], the teratogenic activity result in series [1] is on record as “Non-teratogenic”. Further, the “effect on proliferation and differentiation” value in series [2] is given as “have not been shown to affect differentiation”.
Consider `CC1=C(/C=C/C(C)=C\C=C\C(C)=C\C(=O)O)C(C)(C)CCC1` [9-cis RA, 9-cis retinoic acid], for which the “neuronal differentiation compared to control, in words” value with rat cortical stem cells [3] (daily treatment 7 days, 0.5 mM valproate, 0.5× NCM, 1 nM 9-cis RA) was “increased the neuronal differentiation”.
On to `C#CC[C@H](CCC)C(=O)O` [(s)-4-yn-valproate], for which the teratogenic activity entry in series [1] is listed as “in vivo teratogenic activity”. Besides, the “effect on proliferation and differentiation” value in series [2] was “inhibit proliferation and enhance differentiation”.
As for `C#CCC(CCC)C(=O)O` (stereo not drawn) [R-4-yn-valproate], the teratogenic activity result in series [1] is “Non-teratogenic”. The “effect on proliferation and differentiation” value in series [2] is reported as “have not been shown to affect differentiation”.

B1: BDNF: brain-derived neurotrophic factor (R & D Systems), known promoter of neural stem cell differentiation (protein, UniProt P23560 19-247, looked up)
Neurotrophic factor BDNF …: APMKEANIRGQGGLAYPGVRTHGTLESVNGPKAGSRGLTSLADTFEHVIEELLDEDQKVRPNEENNKDADLYTSRVMLSSQVPLEPPLLFLLEEYKNYLDAANMSMRVRRHSDPARRGELSVCDSISEWVTAADKKTAVDMSGGTVTVLEKVPVSKGQLKQYFYETKCNPMGYTKEGCRGIDKRHWNSQCRTTQSYVRALTMDSKKRIGWRFIRIDTSCVCTLTIKRGR
In series [4], B1 came in with a neuronal differentiation of 58%. For the same molecule, the “effect on neuronal differentiation (percentage of β-tubulin-III expressing cells) in words” value with rat cortical stem cells [3] was “increased the percentage of β-tubulin-III expressing cells over control but was less effective than valproate”. Moreover, the “percentage of β-tubulin III expressing neurons (mean+SD)” value in the series with rat cortical stem cells [3] (0.5 mM valproate) is reported as 12.7+2%. Moreover, the “neurite index (percentage of cells whose neurites total more than 20 μm in length)” value in the series with rat cortical stem cells [5] is 38.3+1.

B2: NT-3: Neurotrophin-3 (R & D Systems) (protein, UniProt P20783 139-257, looked up)
Neurotrophin-3: YAEHKSHRGEYSVCDSESLWVTDKSSAIDIRGHQVTVLGEIKTGNSPVKQYFYETRCKEARPVKNGCRGIDDKHWNSQCKTSQTYVRALTSENNKLVGWRWIRIDTSCVCALSRKIGRT
For the molecule B2, in the series with rat cortical stem cells [3], the “effect on neuronal differentiation (percentage of β-tubulin-III expressing cells) in words” value was “didn't have any effect”. Besides, the “percentage of β-tubulin III expressing neurons (mean+SD)” value in the series on rat cortical stem cells [3] (0.5 mM valproate) was 8+1%.
